Laboratory results reported in article PMC5666424, “Marine-Derived 2-Aminoimidazolone Alkaloids. Leucettamine B-Related Polyandrocarpamines Inhibit Mammalian and Protozoan DYRK & CLK Kinases” (Marine Drugs, 2017).
Where two headings read alike, the source gives them in different places.

Key:
Assay in all cases: Protein kinase assay
CK1δ/ε = format: biochemical, porcine; details: 15 μmol/L ATP
Protocol: (§1) CK1δ/ε (porcine brain, native) and LmCK1 (leishmania major, recombinant, expressed in E. coli as HIS fusion proteins) was assayed as described for CDK1 but in buffer C and using 25 μM CKS peptide ([…]pSAYSITA), a CK1-specific substrate.

DYRK1B = DYRK1B (Homo sapiens, UniProt Q9Y463); format: biochemical; details: 15 μmol/L ATP
CDK2/cyclin A = biological target: T1, CDK2/cyclin A (Homo sapiens, UniProt P24941); format: biochemical; details: 15 μmol/L ATP; read-out: IC50 CDK2/cyclin A
T1 construct: made in house

GSK-3α/β = format: biochemical, porcine; details: 15 μmol/L ATP
CDK9/cyclin T = CDK9/cyclin T (Homo sapiens, UniProt P50750); details: 15 μmol/L ATP
DYRK1A = DYRK1A (Homo sapiens, UniProt Q13627); format: biochemical; details: 15 μmol/L ATP
PfGSK-3 = biological target: T2, PfGSK-3 (Plasmodium falciparum, UniProt O77344); format: biochemical; details: 15 μmol/L ATP; read-out: IC50 PfGSK-3
T2 sequence (O77344 1-440): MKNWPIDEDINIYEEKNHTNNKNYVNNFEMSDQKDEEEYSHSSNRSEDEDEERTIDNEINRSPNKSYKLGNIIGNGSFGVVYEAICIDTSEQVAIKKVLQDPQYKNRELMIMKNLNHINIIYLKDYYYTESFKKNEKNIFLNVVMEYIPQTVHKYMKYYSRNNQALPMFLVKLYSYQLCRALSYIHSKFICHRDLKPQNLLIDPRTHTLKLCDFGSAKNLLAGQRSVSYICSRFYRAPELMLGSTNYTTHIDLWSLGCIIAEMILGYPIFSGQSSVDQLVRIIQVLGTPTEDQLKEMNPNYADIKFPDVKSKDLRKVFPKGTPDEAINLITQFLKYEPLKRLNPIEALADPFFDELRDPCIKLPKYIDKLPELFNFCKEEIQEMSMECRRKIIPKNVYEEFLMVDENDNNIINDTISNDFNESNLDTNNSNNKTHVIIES
Protocol: The parasitic kinase genes (Supplementary Data, Table S3) were optimized for expression in E. coli, synthesized, and cloned in pGEX-6P-1 (GE Healthcare, Sigma-Aldrich, St. Quentin Fallavier, France) with the type II restriction enzymes BamHI and XhoI for glutathione S-transferase (GST) fusion at the N-terminus (GenScript). Plasmids were transformed into chemically competent E. coli BL21(DE3), which were grown overnight at 37 °C in 2 × YT medium containing 100 μg/mL ampicillin. These cultures were used to inoculate 1 L volumes of 2 × YT medium (containing 100 μg/mL ampicillin) in 5 L flasks. The cultures were allowed to grow at 37 °C before the temperature was decreased to 18 °C. At an optical density at 600 nm (OD600) of about 1.0, protein expression was induced overnight at 18 °C with 0.1 mM isopropyl β-D-1-thiogalactopyranoside (IPTG). The bacteria were harvested by centrifugation and were frozen at −20 °C.
Cells were resuspended in a lysis buffer (PBS pH 7.4, 1% NP40, 1 mM DTT, 1 mM EDTA, 1 mM PMSF) in the presence of protease inhibitor cocktail (Roche), and lysozyme was added to 1 mg/mL and incubated 1 h at 4 °C with gentle agitation. Cells were then sonicated on ice before 6 mM MgCl2 and 25 U/mL benzonase (Novagen, Merck Millipore, Fontenay sous Bois, France) were added to degrade nucleic acids and decrease sample viscosity. After centrifugation at 4 °C, the soluble fraction was collected and proteins were bound to Glutathione sepharose 4B beads (GE Healthcare). Beads were washed three times with lysis buffer and once with modified buffer C (25 mM MOPS pH 7.0, 60 mM β-glycerophosphate, 15 mM p-nitrophenylphosphate, 15 mM EGTA, 15 mM MgCl2, 2 mM DTT, 1 mM sodium vanadate). Proteins were eluted with elution buffer (buffer C containing 30 mM reduced glutathione, 15% glycerol, and pH adjusted to 8.5).

CLK3 = CLK3 (Mus musculus, UniProt O35492)
CDK5/p25 = biological target: T3, CDK5/p25 (Homo sapiens, UniProt Q00535); format: biochemical; details: 15 μmol/L ATP; read-out: IC50 CDK5/p25
T3 construct: made in house

DYRK3 = biological target: T4, DYRK3 (Homo sapiens, UniProt O43781); format: biochemical; details: 15 μmol/L ATP; read-out: IC50 DYRK3
T4 sequence (O43781 1-588): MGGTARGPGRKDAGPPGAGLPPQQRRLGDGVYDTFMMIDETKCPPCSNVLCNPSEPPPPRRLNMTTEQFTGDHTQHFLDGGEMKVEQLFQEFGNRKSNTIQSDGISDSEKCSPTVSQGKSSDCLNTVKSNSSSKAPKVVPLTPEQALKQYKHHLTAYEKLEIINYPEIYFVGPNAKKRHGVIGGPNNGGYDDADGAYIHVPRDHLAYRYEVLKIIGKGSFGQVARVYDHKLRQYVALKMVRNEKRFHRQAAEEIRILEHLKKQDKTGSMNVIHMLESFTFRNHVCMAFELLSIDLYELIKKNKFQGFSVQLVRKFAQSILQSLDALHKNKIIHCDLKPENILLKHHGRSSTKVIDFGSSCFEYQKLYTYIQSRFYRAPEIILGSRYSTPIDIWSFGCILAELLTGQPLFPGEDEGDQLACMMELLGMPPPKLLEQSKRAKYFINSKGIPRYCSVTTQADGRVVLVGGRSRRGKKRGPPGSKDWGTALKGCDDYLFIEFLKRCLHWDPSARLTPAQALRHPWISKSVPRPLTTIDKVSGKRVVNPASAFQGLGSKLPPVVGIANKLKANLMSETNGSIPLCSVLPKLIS

CLK2 = CLK2 (Mus musculus, UniProt O35491)
CDK1/cyclin B = format: biochemical, starfish; details: 15 μmol/L ATP
DYRK2 = biological target: T5, DYRK2 (Homo sapiens, UniProt Q92630); format: biochemical; details: 15 μmol/L ATP; read-out: IC50 DYRK2
T5 sequence (Q92630 1-601): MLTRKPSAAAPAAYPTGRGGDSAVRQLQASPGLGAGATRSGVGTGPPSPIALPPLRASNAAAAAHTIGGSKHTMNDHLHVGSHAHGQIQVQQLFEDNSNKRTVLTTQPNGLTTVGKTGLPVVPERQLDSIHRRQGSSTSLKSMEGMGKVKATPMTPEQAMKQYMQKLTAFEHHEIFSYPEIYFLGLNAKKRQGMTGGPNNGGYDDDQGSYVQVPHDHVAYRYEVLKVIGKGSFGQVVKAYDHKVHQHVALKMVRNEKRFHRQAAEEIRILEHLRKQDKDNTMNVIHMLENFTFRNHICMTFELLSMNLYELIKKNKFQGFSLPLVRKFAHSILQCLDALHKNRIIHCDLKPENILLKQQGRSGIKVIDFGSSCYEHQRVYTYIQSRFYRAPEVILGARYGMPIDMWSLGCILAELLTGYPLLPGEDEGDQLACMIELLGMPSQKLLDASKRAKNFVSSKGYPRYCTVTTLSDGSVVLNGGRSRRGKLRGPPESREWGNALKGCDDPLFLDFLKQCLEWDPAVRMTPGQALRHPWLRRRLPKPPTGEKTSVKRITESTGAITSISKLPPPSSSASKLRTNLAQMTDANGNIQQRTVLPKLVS

LmCK1 = LmCK1 (Leishmania major, UniProt Q9NHE1); format: biochemical; details: 15 μmol/L ATP; read-out: IC50 LmCK1
Protocol: as §1

CLK1 = CLK1 (Mus musculus, UniProt P22518)
CLK4 = CLK4 (Mus musculus, UniProt O35493)
[1] = read-out: IC50 CLK3, 15 μmol/L ATP
[2] = read-out: IC50 CLK2, 15 μmol/L ATP
[3] = read-out: IC50 CLK1, 15 μmol/L ATP
[4] = read-out: IC50 CLK4, 15 μmol/L ATP

Sequence of CLK2 (O35491 whole entry): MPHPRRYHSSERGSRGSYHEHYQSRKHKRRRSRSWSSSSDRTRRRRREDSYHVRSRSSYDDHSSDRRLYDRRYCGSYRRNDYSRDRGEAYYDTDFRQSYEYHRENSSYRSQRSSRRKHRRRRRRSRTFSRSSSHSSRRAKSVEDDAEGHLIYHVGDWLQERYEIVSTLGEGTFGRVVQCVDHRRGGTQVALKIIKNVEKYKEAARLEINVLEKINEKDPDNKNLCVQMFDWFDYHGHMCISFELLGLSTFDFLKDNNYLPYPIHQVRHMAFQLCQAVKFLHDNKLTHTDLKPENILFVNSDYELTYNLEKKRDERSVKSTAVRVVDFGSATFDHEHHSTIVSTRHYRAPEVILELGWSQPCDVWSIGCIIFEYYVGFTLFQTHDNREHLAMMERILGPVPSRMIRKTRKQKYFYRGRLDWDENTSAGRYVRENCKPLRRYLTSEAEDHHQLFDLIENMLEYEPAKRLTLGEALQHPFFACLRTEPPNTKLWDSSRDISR
Sequence of CLK4 (O35493 whole entry): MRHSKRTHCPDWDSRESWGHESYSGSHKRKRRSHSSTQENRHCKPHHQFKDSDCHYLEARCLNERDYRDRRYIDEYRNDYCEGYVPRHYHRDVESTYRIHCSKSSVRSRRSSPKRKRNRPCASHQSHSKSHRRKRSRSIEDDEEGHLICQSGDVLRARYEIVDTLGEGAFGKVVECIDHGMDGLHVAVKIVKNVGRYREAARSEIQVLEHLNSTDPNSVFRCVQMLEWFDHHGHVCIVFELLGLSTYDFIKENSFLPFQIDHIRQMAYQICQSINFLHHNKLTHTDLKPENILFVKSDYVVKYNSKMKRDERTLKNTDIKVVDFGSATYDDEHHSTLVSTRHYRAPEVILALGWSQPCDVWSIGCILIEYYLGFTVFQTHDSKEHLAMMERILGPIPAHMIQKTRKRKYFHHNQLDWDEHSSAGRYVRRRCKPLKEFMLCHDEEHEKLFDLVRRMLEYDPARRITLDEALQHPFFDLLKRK
Sequence of CLK3 (O35492 whole entry): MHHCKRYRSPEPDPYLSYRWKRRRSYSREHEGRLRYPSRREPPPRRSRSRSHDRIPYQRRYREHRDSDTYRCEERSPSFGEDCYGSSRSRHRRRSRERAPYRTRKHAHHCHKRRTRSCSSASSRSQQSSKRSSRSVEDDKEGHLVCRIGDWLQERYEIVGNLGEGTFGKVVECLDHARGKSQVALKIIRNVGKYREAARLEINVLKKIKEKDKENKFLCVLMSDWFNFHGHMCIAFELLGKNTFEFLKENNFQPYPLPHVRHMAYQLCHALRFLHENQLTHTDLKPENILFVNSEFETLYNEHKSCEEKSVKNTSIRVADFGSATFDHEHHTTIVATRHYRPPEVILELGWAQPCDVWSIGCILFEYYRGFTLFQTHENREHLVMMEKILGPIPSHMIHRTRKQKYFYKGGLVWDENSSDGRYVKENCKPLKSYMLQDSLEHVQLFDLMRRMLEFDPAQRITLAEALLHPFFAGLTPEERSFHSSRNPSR
T3 sequence (Q00535 whole entry): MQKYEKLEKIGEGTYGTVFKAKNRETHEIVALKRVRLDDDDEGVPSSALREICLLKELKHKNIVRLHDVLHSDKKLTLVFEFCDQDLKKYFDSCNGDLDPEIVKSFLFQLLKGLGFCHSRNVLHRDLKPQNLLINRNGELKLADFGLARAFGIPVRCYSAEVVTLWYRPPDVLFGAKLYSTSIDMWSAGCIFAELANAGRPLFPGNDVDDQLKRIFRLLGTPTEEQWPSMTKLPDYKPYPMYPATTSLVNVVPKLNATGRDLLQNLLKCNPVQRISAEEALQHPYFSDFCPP
T3 sequence (Q15078 99-307 partner limits assumed): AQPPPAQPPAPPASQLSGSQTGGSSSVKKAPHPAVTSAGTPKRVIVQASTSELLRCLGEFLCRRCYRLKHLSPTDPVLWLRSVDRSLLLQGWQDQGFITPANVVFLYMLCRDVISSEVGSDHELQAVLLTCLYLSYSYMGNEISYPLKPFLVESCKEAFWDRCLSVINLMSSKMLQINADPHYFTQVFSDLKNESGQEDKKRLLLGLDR
Sequence of DYRK1B (Q9Y463 whole entry): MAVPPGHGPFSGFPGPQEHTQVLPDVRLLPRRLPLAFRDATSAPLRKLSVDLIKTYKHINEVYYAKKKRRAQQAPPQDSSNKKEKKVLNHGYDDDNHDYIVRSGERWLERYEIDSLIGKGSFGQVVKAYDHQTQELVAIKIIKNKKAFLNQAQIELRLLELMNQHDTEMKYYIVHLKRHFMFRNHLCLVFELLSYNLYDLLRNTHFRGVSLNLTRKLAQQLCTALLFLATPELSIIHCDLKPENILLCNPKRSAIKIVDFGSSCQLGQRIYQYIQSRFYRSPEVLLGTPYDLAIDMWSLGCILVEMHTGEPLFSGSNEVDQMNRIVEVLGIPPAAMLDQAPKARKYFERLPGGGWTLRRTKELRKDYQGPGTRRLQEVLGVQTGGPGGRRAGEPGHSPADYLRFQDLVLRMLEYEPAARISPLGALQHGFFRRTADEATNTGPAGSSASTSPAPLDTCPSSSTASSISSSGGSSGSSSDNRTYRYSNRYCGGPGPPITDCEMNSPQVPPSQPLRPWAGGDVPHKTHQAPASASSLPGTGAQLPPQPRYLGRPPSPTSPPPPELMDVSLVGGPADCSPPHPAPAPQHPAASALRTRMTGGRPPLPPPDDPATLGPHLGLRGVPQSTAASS
Sequence of LmCK1 (Q9NHE1 entry or part of it): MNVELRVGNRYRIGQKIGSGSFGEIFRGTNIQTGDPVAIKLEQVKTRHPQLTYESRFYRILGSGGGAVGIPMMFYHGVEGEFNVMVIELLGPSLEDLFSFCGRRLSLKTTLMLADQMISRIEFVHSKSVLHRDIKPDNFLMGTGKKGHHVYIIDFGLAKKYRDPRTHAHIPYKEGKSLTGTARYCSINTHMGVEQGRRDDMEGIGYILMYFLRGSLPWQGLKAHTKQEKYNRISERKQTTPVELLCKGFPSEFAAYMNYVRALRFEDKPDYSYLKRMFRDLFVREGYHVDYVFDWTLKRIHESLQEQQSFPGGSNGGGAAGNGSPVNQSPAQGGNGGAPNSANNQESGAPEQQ
Sequence of CLK1 (P22518 whole entry): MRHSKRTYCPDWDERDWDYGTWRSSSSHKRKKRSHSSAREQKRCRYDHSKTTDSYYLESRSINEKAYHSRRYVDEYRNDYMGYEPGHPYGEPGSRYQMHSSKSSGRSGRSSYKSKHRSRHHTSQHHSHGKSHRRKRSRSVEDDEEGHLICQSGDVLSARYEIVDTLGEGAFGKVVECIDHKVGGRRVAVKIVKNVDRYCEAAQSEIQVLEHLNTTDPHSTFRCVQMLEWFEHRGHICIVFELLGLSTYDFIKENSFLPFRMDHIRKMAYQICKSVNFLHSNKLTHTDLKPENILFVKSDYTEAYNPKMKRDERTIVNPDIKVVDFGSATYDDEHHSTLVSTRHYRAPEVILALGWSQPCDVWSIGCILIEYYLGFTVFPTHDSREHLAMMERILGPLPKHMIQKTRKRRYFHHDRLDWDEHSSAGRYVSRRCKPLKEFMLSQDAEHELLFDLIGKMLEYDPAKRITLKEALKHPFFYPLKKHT
Sequence of CDK9/cyclin T (P50750 whole entry): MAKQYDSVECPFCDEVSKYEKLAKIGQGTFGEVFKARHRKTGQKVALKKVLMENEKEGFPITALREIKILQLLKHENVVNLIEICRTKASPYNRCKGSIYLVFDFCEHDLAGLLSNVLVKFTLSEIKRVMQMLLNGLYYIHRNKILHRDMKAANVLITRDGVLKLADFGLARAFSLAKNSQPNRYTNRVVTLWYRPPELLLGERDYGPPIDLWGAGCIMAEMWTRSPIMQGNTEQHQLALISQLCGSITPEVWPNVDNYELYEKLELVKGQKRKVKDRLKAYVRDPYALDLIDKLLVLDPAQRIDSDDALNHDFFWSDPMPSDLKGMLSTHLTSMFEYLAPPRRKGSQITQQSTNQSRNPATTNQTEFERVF
Sequence of CDK9/cyclin T (O60563 whole entry partner): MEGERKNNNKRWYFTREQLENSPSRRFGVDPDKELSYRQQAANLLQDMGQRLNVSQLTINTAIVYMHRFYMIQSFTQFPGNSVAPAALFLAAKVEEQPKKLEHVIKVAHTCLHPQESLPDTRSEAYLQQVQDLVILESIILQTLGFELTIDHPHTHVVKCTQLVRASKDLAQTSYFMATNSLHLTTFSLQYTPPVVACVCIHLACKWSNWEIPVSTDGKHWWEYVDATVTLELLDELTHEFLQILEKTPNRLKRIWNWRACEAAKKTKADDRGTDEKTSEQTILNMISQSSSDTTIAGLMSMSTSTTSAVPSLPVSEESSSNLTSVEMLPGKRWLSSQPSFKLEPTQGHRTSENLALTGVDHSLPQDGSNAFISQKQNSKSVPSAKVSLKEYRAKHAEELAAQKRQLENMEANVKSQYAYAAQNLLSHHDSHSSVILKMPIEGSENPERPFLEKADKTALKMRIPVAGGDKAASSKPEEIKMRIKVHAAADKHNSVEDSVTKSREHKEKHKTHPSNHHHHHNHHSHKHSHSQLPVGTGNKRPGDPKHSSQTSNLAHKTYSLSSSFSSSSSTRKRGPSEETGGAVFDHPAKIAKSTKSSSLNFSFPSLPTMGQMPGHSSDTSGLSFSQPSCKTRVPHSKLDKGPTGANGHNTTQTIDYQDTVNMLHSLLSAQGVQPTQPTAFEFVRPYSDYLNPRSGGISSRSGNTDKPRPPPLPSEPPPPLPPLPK

Structure (SMILES) | IC50 (CK1δ/ε) [µM] | IC50 (DYRK1B) [µM] | IC50 (CDK2/cyclin A) [µM] | IC50 (GSK-3α/β) [µM] | IC50 (CDK9/cyclin T; read-out: IC50 CDK9/cyclin T) [µM] | IC50 (DYRK1A) [µM] | IC50 (PfGSK-3) [µM] | IC50 (CLK3; [1]) [µM] | IC50 (CDK5/p25) [µM] | IC50 (DYRK3) [µM] | IC50 (CLK2; [2]) [µM] | IC50 (CDK1/cyclin B) [µM] | IC50 (DYRK2) [µM] | IC50 (LmCK1) [µM] | IC50 (CLK1; [3]) [µM] | IC50 (CLK4; [4]) [µM] | IC50 (CDK9/cyclin T; IC50 CDK9/cyclin T) [µM] | IC50 (CLK3; IC50 CLK3, 15 μmol/L ATP) [µM] | IC50 (CLK2; IC50 CLK2, 15 μmol/L ATP) [µM] | IC50 (CLK1; IC50 CLK1, 15 μmol/L ATP) [µM] | also measured
COc1cc(/C=C2\N=C(N)NC2=O)ccc1O [PAC1, polyandrocarpamine A] |  | 0.4 |  | > 10 |  | 0.23 |  |  |  | 0.28 |  | > 10 | 0.14 |  |  |  | 1.1 | 2.3 | 1.2 | 0.43 | IC50 (CK1δ/ε; listed as 1): 5.2 µM; IC50 (CLK4; IC50 CLK4, 15 μmol/L ATP): 0.4 µM
COc1cc(/C=C2\N=C(N)NC2=O)ccc1O [PAC12, polyandrocarpamine A] |  | 0.47 |  |  |  | 0.3 |  |  |  | 0.34 |  |  | 0.24 |  |  |  | 0.9 | 2.7 | 0.64 | 0.47 | IC50 (CK1δ/ε; listed as 12): 5 µM; IC50 (CLK4; IC50 CLK4, 15 μmol/L ATP): 0.47 µM

Further lines, with some results ahead:

IC50 (CK1δ/ε) [µM] | IC50 (DYRK1B) [µM] | IC50 (CDK2/cyclin A) [µM] | IC50 (GSK-3α/β) [µM] | IC50 (CDK9/cyclin T; read-out: IC50 CDK9/cyclin T) [µM] | IC50 (DYRK1A) [µM] | IC50 (PfGSK-3) [µM] | IC50 (CLK3; [1]) [µM] | IC50 (CDK5/p25) [µM] | IC50 (DYRK3) [µM] | IC50 (CLK2; [2]) [µM] | IC50 (CDK1/cyclin B) [µM] | IC50 (DYRK2) [µM] | IC50 (LmCK1) [µM] | IC50 (CLK1; [3]) [µM] | IC50 (CLK4; [4]) [µM] | Structure (SMILES) | IC50 (CDK9/cyclin T; IC50 CDK9/cyclin T) [µM] | IC50 (CLK3; IC50 CLK3, 15 μmol/L ATP) [µM] | IC50 (CLK2; IC50 CLK2, 15 μmol/L ATP) [µM] | IC50 (CLK1; IC50 CLK1, 15 μmol/L ATP) [µM] | also measured
> 10 | 6.1 | > 10 | > 10 | ≥ 10 | 1.3 | > 10 | > 10 | > 10 | 5.7 | 7.5 | > 10 | 0.64 | > 10 | 2.2 | 2.4 | COc1cc(C=C2N=C(N)NC2=O)ccc1F [PAC5] |  |  |  |  | 
> 10 | > 10 | > 10 | > 10 | > 10 | > 10 | > 10 | > 10 | > 10 | > 10 | > 10 | > 10 | > 10 | > 10 | > 10 | > 10 | CN(C)CCOc1ccc(C=C2N=C(N)NC2=O)cc1 [PAC6] |  |  |  |  | 
> 10 | > 10 | > 10 | > 10 | > 10 | 3 | > 10 | > 10 | > 10 | > 10 | > 10 | > 10 | 3.4 | > 10 | > 10 | > 10 | Cc1ccc(C=C2N=C(N)NC2=O)s1 [PAC10] |  |  |  |  | 
